Experimental data published in article doi:10.1101/2021.10.07.463234v2 (biorxiv, 2021).
Where a name gives a salt, the structure may show the parent alone. Bridge positions count the residues as written; N and C are the ends. Square brackets hold non-standard residues; d marks the D form. Peptide text beside a SMILES is read from it. * marks the point of attachment. Ileψ(thiazoline)Cys = CC[C@H](C)[C@H](N)C1=N[C@H](C(=O)*)CS1; dOrn = NCCC[C@@H](N)C(=O)O

Molecular target: SARS-CoV-2 Mac1 (Severe acute respiratory syndrome coronavirus 2, UniProt P0DTD1)
Assay: biochemical
Details: for inhibition at 100 µM: read-out: %inhibition; for %inhibition: 100 µM, inhibitor

Row | SMILES | inhibition at 100 µM | %inhibition
1 | CCc1cc(/C(C)=N/OCc2ccc(C3CCCCC3)c(C(F)(F)F)c2)ccc1CN1CC(C(=O)O)C1 [BAF312 (Siponimod)] | 26.1% | 
2 | CC[C@H](C)[C@H](N)C1=N[C@H](C(=O)N[C@@H](CC(C)C)C(=O)N[C@H](CCC(=O)O)C(=O)N[C@H](C(=O)N[C@H]2CCCCNC(=O)[C@H](CC(N)=O)NC(=O)[C@@H](CC(=O)O)NC(=O)[C@H](Cc3cnc[nH]3)NC(=O)[C@@H](Cc3ccccc3)NC(=O)[C@H]([C@@H](C)CC)NC(=O)[C@@H](CCCN)NC2=O)[C@@H](C)CC)CS1 [Bacitracin] ({Ileψ(thiazoline)Cys}-L[dE]IK[dOrn]I[dF]H[dD]N; lactam 4-C) | 0% | 
3 | Cc1ccc(NC(=O)c2ccc(CN3CC[C@H](N(C)C)C3)c(C(F)(F)F)c2)cc1Nc1nccc(-c2cncnc2)n1 [Bafetinib (INNO-406)] | 0% | 
4 | CNC1CCCN(c2c(F)cc3c(=O)c(C(=O)O)cn(C4CC4)c3c2OC)C1 (stereo not drawn) [Balofloxacin] | 0% | 
5 | O=C(O)CCNC(=O)c1ccc(/N=N/c2ccc(O)c(C(=O)O)c2)cc1 [Balsalazide disodium] | 0% | 
6 | COC(=O)[C@]12CCC(C)(C)C[C@H]1[C@H]1C(=O)C=C3[C@@]4(C)C=C(C#N)C(=O)C(C)(C)[C@@H]4CC[C@@]3(C)[C@]1(C)CC2 [Bardoxolone Methyl] | 16.4% | 
7 | CCS(=O)(=O)N1CC(CC#N)(n2cc(-c3ncnc4[nH]ccc34)cn2)C1 [Baricitinib (LY3009104, INCB028050)] | 28.1% | 
8 | CNC(=O)[C@H](Cc1ccccc1)NC(=O)[C@H](CC(C)C)[C@H](CSc1cccs1)C(=O)NO [Batimastat (BB-94)] | 0% | 
9 | Cc1c(-c2ccc(O)cc2)n(Cc2ccc(OCCN3CCCCCC3)cc2)c2ccc(O)cc12 [Bazedoxifene Acetate] |  | 3.518%
10 | Cc1c(-c2ccc(O)cc2)n(Cc2ccc(OCCN3CCCCCC3)cc2)c2ccc(O)cc12 [Bazedoxifene HCl] |  | 0%
11 | CCC(=O)OCC(=O)[C@@]1(OC(=O)CC)[C@@H](C)C[C@H]2[C@@H]3CCC4=CC(=O)C=C[C@]4(C)[C@@]3(Cl)[C@@H](O)C[C@@]21C [Beclomethasone dipropionate] | 0% | 
12 | COc1nc2ccc(Br)cc2cc1[C@@H](c1ccccc1)[C@@](O)(CCN(C)C)c1cccc2ccccc12 [Bedaquiline fumarate] |  | 0%
13 | COc1nc2ccc(Br)cc2cc1[C@@H](c1ccccc1)[C@@](O)(CCN(C)C)c1cccc2ccccc12 [Bedaquiline] |  | 4.292%
14 | O=C(/C=C/c1cccc(S(=O)(=O)Nc2ccccc2)c1)NO [Belinostat (PXD101)] | 20% | 
15 | CCC1(C)CC(=O)NC(=O)C1 [Bemegride] | 0% | 
16 | CCN(CC)CCOC(=O)C(O)(c1ccccc1)c1ccccc1 [Benactyzine hydrochloride] | 0% | 
17 | CCOC(=O)[C@H](CCc1ccccc1)N[C@H]1CCc2ccccc2N(CC(=O)O)C1=O [Benazepril HCl] | 0% | 
18 | O=C(O)COc1nn(Cc2ccccc2)c2ccccc12 [Bendazac] | 3.85% | 
19 | NS(=O)(=O)c1cc2c(cc1C(F)(F)F)NC(Cc1ccccc1)NS2(=O)=O (stereo not drawn) [Bendroflumethiazide] | 0% | 
20 | CC(COc1ccccc1Cc1ccccc1)N1CCCCC1 (stereo not drawn) [Benproperine phosphate] | 0% | 
21 | NC(CO)C(=O)NNCc1ccc(O)c(O)c1O (stereo not drawn) [Benserazide HCl] | 7.42% | 
22 | O=C(O)c1ccc(NC(=O)[C@H](Cc2ccc(O)cc2)NC(=O)c2ccccc2)cc1 [Bentiromide] | 3.94% | 
23 | CCc1oc2ccccc2c1C(=O)c1cc(Br)c(O)c(Br)c1 [Benzbromarone] | 6.57% | 

Row | SMILES | inhibition at 100 µM | %inhibition
24 | O=C(Cn1ccnc1[N+](=O)[O-])NCc1ccccc1 [Benznidazole] | 0% | 
25 | CCOC(=O)c1ccc(N)cc1 [Benzocaine hydrochloride] | 0% | 
26 | O=C(O)c1ccccc1 [Benzoic Acid] |  | 1.824%
27 | NS(=O)(=O)c1cc2c(cc1Cl)N=C(CSCc1ccccc1)NS2(=O)=O [Benzthiazide] | 0% | 
28 | CN(C)CCCOc1nn(Cc2ccccc2)c2ccccc12 [Benzydamine HCl] | 4.5% | 
29 | OCc1ccccc1 [Benzyl alcohol] | 0% | 
30 | O=C(OCc1ccccc1)c1ccccc1 [Benzyl benzoate] | 0% | 
31 | CC1(C)S[C@@H]2[C@H](NC(=O)Cc3ccccc3)C(=O)N2[C@H]1C(=O)O [Benzylpenicillin potassium] |  | 8.229%
32 | O=C(O)CCCN1CCC(O[C@@H](c2ccc(Cl)cc2)c2ccccn2)CC1 [Bepotastine Besilate] | 15% | 
33 | COc1ccc2cc3[n+](cc2c1OC)CCc1cc2c(cc1-3)OCO2 [Berberine Sulfate] |  | 0%
34 | COc1ccc2cc3[n+](cc2c1OC)CCc1cc2c(cc1-3)OCO2 [Berberine chloride] |  | 8.063%
35 | N[C@@H]1CCCCN(c2c(F)cc3c(=O)c(C(=O)O)cn(C4CC4)c3c2Cl)C1 [Besifloxacin HCl] | 0% | 
36 | CC1=C(/C=C/C(C)=C/C=C/C(C)=C/C=C/C=C(C)/C=C/C=C(C)/C=C/C2=C(C)CCCC2(C)C)C(C)(C)CCC1 [Beta Carotene] | 7.3% | 
37 | CNCCc1ccccn1 [Betahistine mesylate] | 0% | 
38 | C[N+](C)(C)CC(=O)O [Betaine] | 0% | 
39 | CCC(=O)OCC(=O)[C@@]1(OC(=O)CC)[C@@H](C)C[C@H]2[C@@H]3CCC4=CC(=O)C=C[C@]4(C)[C@@]3(F)[C@@H](O)C[C@@]21C [Betamethasone Dipropionate] | 5.5% | 
40 | CCCCC(=O)O[C@]1(C(=O)CO)[C@@H](C)C[C@H]2[C@@H]3CCC4=CC(=O)C=C[C@]4(C)[C@@]3(F)[C@@H](O)C[C@@]21C [Betamethasone Valerate] | 0% | 
41 | C[C@H]1C[C@H]2[C@@H]3CCC4=CC(=O)C=C[C@]4(C)[C@@]3(F)[C@@H](O)C[C@]2(C)[C@@]1(O)C(=O)CO [Betamethasone] |  | 1.437%
42 | O=C(O)CCNC(=O)c1ccccc1 [Betamipron] | 7.69% | 
43 | CC(C)NCC(O)COc1ccc(CCOCC2CC2)cc1 (stereo not drawn) [Betaxolol HCl] |  | 10.86%
44 | CC(C)NCC(O)COc1ccc(CCOCC2CC2)cc1 (stereo not drawn) [Betaxolol] |  | 0%
45 | CC(C[N+](C)(C)C)OC(N)=O (stereo not drawn) [Bethanechol chloride] | 0% | 
46 | COc1ccc(NC(=O)c2ccc(C(=N)N(C)C)cc2)c(C(=O)Nc2ccc(Cl)cn2)c1 [Betrixaban maleate] |  | 3.06%

Row | SMILES | inhibition at 100 µM | %inhibition
47 | COc1ccc(NC(=O)c2ccc(C(=N)N(C)C)cc2)c(C(=O)Nc2ccc(Cl)cn2)c1 [Betrixaban] |  | 0%
48 | COc1ccc(CCNCC(O)COc2cccc(C)c2)cc1OC (stereo not drawn) [Bevantolol hydrochloride] | 17.4% | 
49 | C=C(c1ccc(C(=O)O)cc1)c1cc2c(cc1C)C(C)(C)CCC2(C)C [Bexarotene] | 0% | 
50 | CC(C)(Oc1ccc(CCNC(=O)c2ccc(Cl)cc2)cc1)C(=O)O [Bezafibrate] | 9.85% | 
51 | C[C@@H](O)[C@H]1C(=O)N2C(C(=O)[O-])=C(SC3Cn4cnc[n+]4C3)[C@H](C)[C@H]12 (stereo partly drawn) [Biapenem] | 5.82% | 
52 | CC(O)(CS(=O)(=O)c1ccc(F)cc1)C(=O)Nc1ccc(C#N)c(C(F)(F)F)c1 (stereo not drawn) [Bicalutamide] | 0% | 
53 | c1ccc(-c2ccc(C(c3ccccc3)n3ccnc3)cc2)cc1 (stereo not drawn) [Bifonazole] | 37% | 
54 | CCOCCn1c(C2CCN(CCc3ccc(C(C)(C)C(=O)O)cc3)CC2)nc2ccccc21 [Bilastine] | 0% | 
55 | CCNC(=O)CCC/C=C\C[C@@H]1[C@@H](/C=C/[C@@H](O)CCc2ccccc2)[C@H](O)C[C@@H]1O [Bimatoprost] | 0% | 
56 | Cn1cnc2c(F)c(Nc3ccc(Br)cc3F)c(C(=O)NOCCO)cc21 [Binimetinib (MEK162, ARRY-162, ARRY-438162)] | 24% | 
57 | O=C(O)CCCC[C@@H]1SC[C@@H]2NC(=O)N[C@@H]21 [Biotin (Vitamin B7)] | 0% | 
58 | CC[C@H](NC(=O)[C@H](C)NC)C(=O)N1C[C@@H](O)C[C@H]1Cc1c(-c2[nH]c3cc(F)ccc3c2C[C@@H]2C[C@H](O)CN2C(=O)[C@H](CC)NC(=O)[C@H](C)NC)[nH]c2cc(F)ccc12 [Birinapant] | 3.17% | 
59 | CC(=O)Oc1ccc(C(c2ccc(OC(C)=O)cc2)c2ccccn2)cc1 [Bisacodyl] | 0% | 
60 | CC(C)NCC(O)COc1ccc(COCCOC(C)C)cc1 (stereo not drawn) [Bisoprolol fumarate] | 0% | 
61 | Oc1c(Cl)cc(Cl)cc1Sc1cc(Cl)cc(Cl)c1O [Bithionol] | 0% | 
62 | C[C@H](Oc1ccc(S(C)(=O)=O)cc1C(=O)N1CCN(c2ncc(C(F)(F)F)cc2F)CC1)C(F)(F)F [Bitopertin] | 0% | 
63 | Cc1c(N)nc([C@H](CC(N)=O)NC[C@H](N)C(N)=O)nc1C(=O)N[C@H](C(=O)N[C@H](C)[C@@H](O)[C@H](C)C(=O)N[C@H](C(=O)NCCc1nc(-c2nc(C(=O)NCCC[S+](C)C)cs2)cs1)[C@@H](C)O)[C@@H](O[C@@H]1O[C@@H](CO)[C@@H](O)[C@H](O)[C@@H]1O[C@H]1O[C@H](CO)[C@@H](O)[C@H](OC(N)=O)[C@@H]1O)c1cnc[nH]1 [Bleomycin sulfate] | 0% | 
64 | CC(C)(C)NC(=O)N[C@H](C(=O)N1C[C@H]2[C@@H]([C@H]1C(=O)NC(CC1CCC1)C(=O)C(N)=O)C2(C)C)C(C)(C)C (stereo partly drawn) [Boceprevir] |  | 2.103%
65 | CC(C)C[C@H](NC(=O)[C@H](Cc1ccccc1)NC(=O)c1cnccn1)B(O)O [Bortezomib (PS-341)] | 54.2% | 
66 | COc1ccccc1Oc1c(NS(=O)(=O)c2ccc(C(C)(C)C)cc2)nc(-c2ncccn2)nc1OCCO [Bosentan Hydrate] | 0.962% | 
67 | COc1cc(Nc2c(C#N)cnc3cc(OCCCN4CCN(C)CC4)c(OC)cc23)c(Cl)cc1Cl [Bosutinib (SKI-606)] | 55.6% | 
68 | O=c1ccc2ccc(OCCCCN3CCN(c4cccc5sccc45)CC3)cc2[nH]1 [Brexpiprazole] | 0% | 
69 | Brc1c(NC2=NCCN2)ccc2nccnc12 [Brimonidine Tartrate] | 19.3% | 
